This is an account of results in patent US4347319A, “Microbiological epoxidation process” (priority 1980, dated 1982).

Experiment in all cases: Oxidation by washed cell suspensions of methane-grown cells
Holding throughout (format): cell-based

For assay [1], the system named is Methylobacter chroococcum (CRL M6) NRRL B-11,214. The procedure, abridged: (§1)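 Washed resting cells from methane-grown cultures oxidise the test substrate, supplied as a 1:1 mix with O2 or as 10 μl liquid, at 30 °C in pH 7.0 phosphate buffer; product formation is followed by GC.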
In assay [2] the test system is Methylococcus capsulatus (CRL M1) NRRL B-11,219. The procedure, abridged: as §1
Assay [3] has as its system Methylosinus trichosporium (CRL 15 PM1) NRRL B-11,202. The procedure, abridged: as §1
Assay [4] relates to Methylobacterium organophilum (CRL 26 R6) NRRL B-11,222. The procedure, abridged:
as §1

The test system of assay [5] is Methylobacter bovis (CRL M1Y) NRRL B-11,216. The method in brief: as §1
Where [6] appears, read: methane-grown washed cells, 30° C., methane to methanol, alkene to 1,2-epoxide.
The mark [7] stands for this setting: methane-grown cells, propane to acetone, butane to 2-butanone.
The mark [8] stands for this setting: methane-grown cell-suspension, pH 7.0, 3° C.
Where [9] appears, read: methane-grown cell-suspension, pH 7.0, 30° C.
Setting [10] is: growth substrate Methane, n-alkane to secondary alcohol.
Setting [11] is: cells grown on methane at 40° C., 30° C. reaction temperature.

Like-named read-outs stand apart in the source and are kept apart here.

For the compound `CCC(C)O` (centres unmarked) [2-Butanol], the “Conversion Rate to Ketone, 2 hrs.” value in assay [1] is recorded as 1 μmole/2 mg protein; in assay [2], 18 μmole/2 mg protein; in assay [3] it was 20 μmole/2 mg protein; in assay [4], 10 μmole/2 mg protein; in assay [5], 20 μmole/2 mg protein. In addition, the “Conversion Rate to Ketone, 20 hrs.” value was 3 μmole/2 mg protein in assay [1] and 50 μmole/2 mg protein in assay [2].

`C=CC=C` [Butadiene]: the “Oxidative Conversion Rates” value in assay [1] (setting [6]) is listed as 1.5 μmole/hr/mg protein; in assay [2] (setting [6]), 4.4 μmole/hr/mg protein; in assay [3] (setting [6]), 4.2 μmole/hr/mg protein; in assay [4] (setting [6]), 2.8 μmole/hr/mg protein; in assay [5] (setting [6]) it was 1.27 μmole/hr/mg protein.

Take `CCCC` [Butane]: in assay [1], the “Conversion Rate to Ketone” value was 1 μmoles/hr/mg Protein. Also, in assay [2], the “Conversion Rate to Ketone” value amounted to 2 μmoles/hr/mg Protein. Also, in assay [2] (pH 7), the “Conversion Rate to 1-Butanol” value was found to be 0.4 μmoles/hr./mg./protein, the “Conversion Rate to 2-Butanol” value is 0.5 μmoles/hr./mg./protein, the “Conversion Rate to 2-Butanone” value turned out to be 0.2 μmoles/hr./mg./protein and the “Conversion Rate to n-butanol” value was 0.2 μmoles/hr./mg./protein. Moreover, in assay [3], the “Conversion Rate” value is listed as 1.2 μmoles/hr/^5 mg. protein and the “Conversion Rate to Ketone” value was determined as 1.0 μmoles/hr/mg Protein. Besides, in assay [4], the “Conversion Rate” value was found to be 0.80 μmoles/hr/^5 mg. protein and the “Conversion Rate to Ketone” value came to 2.0 μmoles/hr/mg Protein. In addition, in assay [5], the “Conversion Rate to Ketone” value is recorded as 3 μmoles/hr/mg Protein.

Regarding `C` [Methane], the “Oxidative Conversion Rates” value is on record as 0.8 in assay [1]; 2.5 in assay [2]; 1.2 in assay [3]; 0.7 in assay [4]; 1.5 in assay [5]. In assay [2] (pH 7), the “Conversion Rate to Methanol” value is 2.5 μmoles/hr./mg./protein.

Turning to `CCC` [Propane], the “Conversion Rate to Ketone” value in assay [1] (setting [7]) is 2.0 μmoles/hr/mg Protein; in assay [2] (setting [7]) it was 4.0 μmoles/hr/mg Protein; in assay [3] (setting [7]), 1.6 μmoles/hr/mg Protein; in assay [4] (setting [7]), 3.0 μmoles/hr/mg Protein; in assay [5] (setting [7]) it was 5.0 μmoles/hr/mg Protein. For the same compound, in assay [2] (setting [8]), the “Conversion Rate to 2-Propanol” value was found to be 0.7 μmoles/hr./mg./protein. Besides, the “Conversion Rate to Acetone” value in assay [2] (setting [8]) is on record as 0.3 μmoles/hr./mg./protein. In assay [2] (setting [9]), the “Conversion Rate to 1-Propanol” value came to 0.5 μmoles/hr./mg./protein. Further, in assay [2] (setting [9]), the “Conversion Rate to Propanol” value is given as 0.2 μmoles/hr./mg./protein. Moreover, the “Conversion Rate” value in assay [3] (setting [10]) is on record as 2.1 μmoles/hr/^5 mg. protein; in assay [4] (setting [10]), 1.4 μmoles/hr/^5 mg. protein.

Turning to `C=CC` [Propylene], the “Oxidative Conversion Rates” value in assay [1] (setting [6]) is 1.2 μmole/hr/mg protein; in assay [2] (setting [6]), 5.5 μmole/hr/mg protein; in assay [3] (setting [6]), 4.5 μmole/hr/mg protein; in assay [4] (setting [6]), 2.5 μmole/hr/mg protein; in assay [5] (setting [6]), 1.5 μmole/hr/mg protein. Besides, the figures for the “conversion rate propylene to propylene oxide” value in assay [2] (setting [11]) and in assay [5] (setting [11]) were 7.88 μ mole/2 hr./mg. protein and 0.27 μ mole/2 hr./mg protein, respectively.
